Experimental data from US20070060615A1, “Method of Modulating Apoptosis Through Modulation of E2F1” (University of South Florida, priority 2003, published 2007).

Key:
E2F1 = assay: Western blot of E2F1 in H1299 cells; format: cell-based, human
Description: (§1) The H1299 non-small cell lung cancer line are grown in DMEM supplemented with 2 mM L-glutamine (Life Technologies, Inc.), 5% fetal bovine serum (Hyclone), and 1% penicillin/streptomycin (Life Technologies, Inc.). NIH3T3 cells constitutively expressing human Mcl-1 were created by transfecting cells with pcDNA-3-Mcl-1 and selecting for transformants in the presence of 400 μg/ml G418. Mouse embryo fibroblasts from E2F1-null animals were grown in DMEM with 15% fetal bovine serum and 1% penicillin/streptomycin. […] The drug was diluted directly into the medium to indicated concentrations followed by incubation at 37° C. Untreated cells and cells treated with DMSO alone behaved identically. Cell lysates were normalized for total protein content (50 μg) and subjected to SDS-PAGE as described previously. Primary antibodies used in these studies consisted of E2F1 (SantaCruz Biotechnology; SC-251), Mcl-1 (Santa Cruz; SC-819), Rb (PharMingen; 14031A), Flag (Sigma; F-3615) and β-actin (Sigma; A5441). Detection of proteins was accomplished using horseradish-peroxidase-conjugated secondary antibodies and enhanced chemiluminescence (ECL) purchased through Amersham. Northern blots were performed as described previously.

Mcl-1 [1] = assay: Western blot of Mcl-1 in H1299 cells; format: cell-based, human
Description: as §1

[2] = test system: H1299 lung carcinoma cells; assay: Apoptosis by Apo-BrdUrd incorporation in H1299 cells; format: cell-based, human
Description: (§2) The H1299 non-small cell lung cancer line are grown in DMEM supplemented with 2 mM L-glutamine (Life Technologies, Inc.), 5% fetal bovine serum (Hyclone), and 1% penicillin/streptomycin (Life Technologies, Inc.). NIH3T3 cells constitutively expressing human Mcl-1 were created by transfecting cells with pcDNA-3-Mcl-1 and selecting for transformants in the presence of 400 μg/ml G418. Mouse embryo fibroblasts from E2F1-null animals were grown in DMEM with 15% fetal bovine serum and 1% penicillin/streptomycin. […] The drug was diluted directly into the medium to indicated concentrations followed by incubation at 37° C. Untreated cells and cells treated with DMSO alone behaved identically.
(§3) Apoptosis was assayed using PharMingen “APO-BrdU” kit without modification. After treatment with flavopiridol, cells were trypsinized and resuspended in PBS. Cells were counted and 1-2×10^6 cells were fixed in 1% paraformaldehyde in PBS on ice, pelleted, washed twice in PBS, and fixed with ice-cold 70% ethanol overnight. The next day, cells were pelleted, resuspended, and washed with wash buffer. Pelleted cells were resuspended with reaction buffer, TdT enzyme, and bromo-dUTP for 1 hour at 37° C. Cells were subsequently rinsed with 1.0 ml of PBS and resuspended with fluorescein-labeled anti-BrdUrd in the dark for 30 min at room temperature. Propidium iodide and RNase were added, and the cells were incubated for 30 min. One×10^4 cells per experimental condition were analyzed for fluorescence on a Becton-Dickinson FACScan using Cell Quest software.

Bok = assay: Western blot of Bok in H1299 cells; format: cell-based, human; details: H1299, 200 nM
Bcl-2 = assay: Western blot of Bcl-2 in H1299 cells; format: cell-based, human; details: H1299, 200 nM
Rb = Rb Western blot (Rb phosphorylation) in H1299 cells; format: cell-based, human; details: H1299, 200 nM, time course FIG. 3A
Description: (§4) Cell lysates were normalized for total protein content (50 μg) and subjected to SDS-PAGE as described previously. Primary antibodies used in these studies consisted of E2F1 (SantaCruz Biotechnology; SC-251), Mcl-1 (Santa Cruz; SC-819), Rb (PharMingen; 14031A), Flag (Sigma; F-3615) and β-actin (Sigma; A5441). Detection of proteins was accomplished using horseradish-peroxidase-conjugated secondary antibodies and enhanced chemiluminescence (ECL) purchased through Amersham. Northern blots were performed as described previously.

[3] = test system: H1299-Mcl-1-11 and H1299-Mcl-1-13 cells; assay: Apoptosis by Apo-BrdUrd in H1299 cells stably expressing human Mcl-1; format: cell-based; details: 200 nM, 48, 72 and 96 hours, FIG. 4B
Description: H1299 cells lines, constitutively expressing human Mcl-1 under control of the CMV promoter, were obtained by transfecting cells with pcDNA3 or pcDNA3-Mcl-1 and selecting for transformants by growth in 400 μg/ml G418. G418-resistant lines were screened for expression of human Mcl-1. Two Mcl-1-positive cell lines emerged and were characterized. A matching G418-resistant H1299-pcDNA3 cell line was generated in the same way. Apoptosis was assayed using PharMingen “APO-BrdU” kit without modification. After treatment with flavopiridol, cells were trypsinized and resuspended in PBS. Cells were counted and 1-2×10^6 cells were fixed in 1% paraformaldehyde in PBS on ice, pelleted, washed twice in PBS, and fixed with ice-cold 70% ethanol overnight. The next day, cells were pelleted, resuspended, and washed with wash buffer. Pelleted cells were resuspended with reaction buffer, TdT enzyme, and bromo-dUTP for 1 hour at 37° C. Cells were subsequently rinsed with 1.0 ml of PBS and resuspended with fluorescein-labeled anti-BrdUrd in the dark for 30 min at room temperature. Propidium iodide and RNase were added, and the cells were incubated for 30 min. One×10^4 cells per experimental condition were analyzed for fluorescence on a Becton-Dickinson FACScan using Cell Quest software.

human Mcl-1 = assay: Western blot of Mcl-1 in NIH3T3 cells stably expressing human Mcl-1; format: cell-based, murine; details: 200 nM, up to 72 hours, FIG. 5A
Description: as §1

Mcl-1 mRNA = assay: Northern blot of endogenous Mcl-1 mRNA in wild-type NIH3T3 cells; format: cell-based, murine; details: wild-type 3T3 cells, total RNA, FIG. 5B
Description: as §4

wild-type NIH3T3 cells = assay: Apoptosis by Apo-BrdUrd in wild-type NIH3T3 cells; format: cell-based, murine; details: 200 nM, 48 and 72 hours, FIG. 5C
Description: as §3

[4] = test system: NIH3T3 cells stably expressing human Mcl-1; assay: Apoptosis by Apo-BrdUrd in NIH3T3 cells stably expressing Mcl-1; format: cell-based, murine; details: 200 nM, 72 hours, FIG. 5C
Description: as §2
(§5) Apoptosis was assayed using PharMingen “APO-BrdU” kit without modification. After treatment with flavopiridol, cells were trypsinized and resuspended in PBS. Cells were counted and 1-2×10^6 cells were fixed in 1% paraformaldehyde in PBS on ice, pelleted, washed twice in PBS, and fixed with ice-cold 70% ethanol overnight. The next day, cells were pelleted, resuspended, and washed with wash buffer. Pelleted cells were resuspended with reaction buffer, TdT enzyme, and bromo-dUTP for 1 hour at 37° C. […] One×10^4 cells per experimental condition were analyzed for fluorescence on a Becton-Dickinson FACScan using Cell Quest software.

Mcl-1 [5] = assay: Western blot of Mcl-1 in E2F1 knockdown H1299 cells; format: cell-based, human; details: E2F1 knockdown H1299, 8 hours, FIG. 6A
Description: (§6) To generate E2F1 knockdown cell lines H1299 cells were transfected by the calcium phosphate method either with empty BS/U6 RNAi vector or with BS/U6-E2F1 RNAi vector together with pcDNA-3, which encodes a neomycin-selectable marker. Forty-eight hours after transfection, cells were split and cultured in medium containing 400 μg/ml G418. Colonies that emerged from G418 selection were propagated and screened for E2F1 expression by Western blot. Several lines were isolated that had reduced E2F1 expression; the most efficient knockdown cell line, H1299-E2F1RNAi-16, was further characterized. A matching H1299-pBS/U6 cell line was generated in the same way.
as §4

[6] = test system: H1299 cells lacking E2F1 protein; assay: Apoptosis by Apo-BrdUrd in E2F1 knockdown H1299 cells; format: cell-based, human; details: 200 nM, 48 and 72 h, FIG. 6B
Description: as §6, §5

[7] = test system: E2F1 null mouse embryo fibroblasts; assay: Apoptosis by Apo-BrdUrd in E2F1 null mouse embryo fibroblasts; format: cell-based; details: 200 nM, 72 hours, FIG. 6C
Description: as §2, §5

[8] = H1299, 200 nM, 12 hours, extended time course FIG. 3A
[9] = H1299, increasing doses, 48 hours, FIG. 1A

**Q.** What does the source list for `CN1CC[C@H](c2c(O)cc(O)c3c(=O)cc(-c4ccccc4Cl)oc23)[C@H](O)C1` [flavopiridol]?
**A.** E2F1 levels after 12 hours (E2F1; [8]): E2F1 levels had risen; E2F1 levels after 72 hours (E2F1; H1299, 200 nM, 72 hours, FIG. 3A): E2F1 levels fell; Time after which E2F1 levels reached a plateau (E2F1; H1299, 200 nM, FIG. 2A): 9 h; Time after which increases in E2F1 protein are apparent (E2F1; H1299, 200 nM, FIG. 2A): 3 h; E2F1 protein levels, dose response (E2F1; [9]): markedly elevated starting at the 100-nM dose; Mcl-1 protein levels at 200 nM and higher doses (Mcl-1 [1]; H1299, 200 nM and higher, 48 hours, FIG. 1A): undetectable; Mcl-1 levels after 12 hours (Mcl-1 [1]; [8]): undetectable; Mcl-1 levels by 36 hours (Mcl-1 [1]; H1299, 200 nM, 36 hours, FIG. 3A): Low levels of Mcl-1 were apparent; Time after which Mcl-1 levels began to fall (Mcl-1 [1]; H1299, 200 nM, FIG. 2A): 3 h; Time after which Mcl-1 levels were maximally reduced (Mcl-1 [1]; H1299, 200 nM, FIG. 2A): 12 h; Mcl-1 protein levels, dose response (Mcl-1 [1]; [9]): significantly reduced starting at the 100-nM dose; Apoptosis after 48 and 72 hours ([2]; H1299, 200 nM, 48 and 72 hours, FIG. 3B): larger degrees of apoptosis; Apoptosis after 24 hours ([2]; H1299, 200 nM, 24 hours, FIG. 3B): Minimal levels of apoptosis; Apoptosis at 36 hours ([2]; H1299, 200 nM, 36 hours, FIG. 3B): apoptosis was evident; Apoptosis at times <18 hours ([2]; H1299, 200 nM, <18 hours, FIG. 2B): minimal effect on apoptosis; Apoptosis (Apo-BrdUrd incorporation), dose response ([2]; H1299, 48 hours of treatment, FIG. 1B): minimal elevations in apoptosis, as measured by Apo-BrdUrd incorporation, are seen until a dose of 200 nM was reached; Bok levels (Bok): No changes; Bcl-2 levels (Bcl-2): No changes; Rb phosphorylation (Rb): no changes in Rb phosphorylation; Apoptosis in stably transfected Mcl-1 clones compared with control cells [3]: resistant to apoptosis induced by flavopiridol; Human Mcl-1 protein levels in stably transfected NIH3T3 cells (human Mcl-1): no changes are seen in the levels of Mcl-1; Time within which endogenous Mcl-1 levels are reduced (Mcl-1 mRNA): ≤ 6 h; Apoptosis in wild-type NIH3T3 (pcDNA3 alone) (wild-type NIH3T3 cells): undergoes apoptosis starting after 48 hours but is more pronounced after 72 hours of treatment; Apoptosis in NIH3T3 stably expressing Mcl-1 [4]: minimal increases in apoptosis; Mcl-1 protein levels in H1299 cells lacking E2F1 (Mcl-1 [5]): decreased in a manner identical to that of the control cells; Apoptosis in H1299 cells lacking E2F1 compared with empty RNAi vector cells [6]: less sensitive to flavopiridol-induced cell death; Apoptosis in mouse embryo fibroblast lines lacking E2F1 compared with wild-type littermates [7]: less sensitive to flavopiridol-induced cell death
